Measurements as given in ChEMBL document CHEMBL1155690, “Antiyeast steroidal saponins from Yucca schidigera (Mohave yucca), a new anti-food-deteriorating agent” (2000).
Converted amounts (≈) assume the structure as drawn.

Assays:
Format in all cases: functional
Candida albicans = assay: Antimicrobial activity against Candida albicans TIMM 0134 after 48 hrs by agar dilution method
Debaryomyces hansenii = assay: Antimicrobial activity against Debaryomyces hansenii IFO 18 after 48 hrs by agar dilution method; conditions: IFO 18, 48 h
Yamadazyma nakazawae = assay: Antimicrobial activity against Pichia nakazawae HUT 1688 after 48 hrs by agar dilution method
Wickerhamomyces anomalus = assay: Antimicrobial activity against Hansenula anomala HUT 7083 after 48 hrs by agar dilution method
Hanseniaspora uvarum = assay: Antimicrobial activity against Kloeckera apiculata IFO 154 after 48 hrs by agar dilution method; conditions: IFO 154, 48 h
Saccharomyces cerevisiae = assay: Antimicrobial activity against Saccharomyces cerevisiae IFO 203 after 48 hrs by agar dilution method; conditions: IFO 203, 48 h

Row | MIC (Candida albicans) [µg/mL] | MIC (Debaryomyces hansenii) [µg/mL] | MIC (Yamadazyma nakazawae) [µg/mL] | MIC (Wickerhamomyces anomalus) [µg/mL] | MIC (Hanseniaspora uvarum) [µg/mL] | MIC (Saccharomyces cerevisiae) [µg/mL] | Structure (SMILES)
1 | > 100 | 100 (≈ 112 µM) | > 100 | > 100 | > 100 | 100 (≈ 112 µM) | CC1CC[C@@]2(OC1)O[C@H]1C[C@H]3[C@@H]4CC[C@@H]5C[C@@H](O[C@@H]6O[C@H](CO)[C@H](O)[C@H](O[C@@H]7OC[C@@H](O)[C@H](O)[C@H]7O)[C@H]6O[C@@H]6O[C@H](CO)[C@@H](O)[C@H](O)[C@H]6O)[C@@H](O)C[C@]5(C)[C@H]4CC[C@]3(C)[C@H]1[C@@H]2C (some centres undefined)
2 | > 100 | 6.25 (≈ 6.92 µM) | 3.13 (≈ 3.47 µM) | 1.56 (≈ 1.73 µM) | > 100 | 6.25 (≈ 6.92 µM) | C[C@H]1CC[C@@]2(OC1)O[C@H]1C[C@H]3[C@@H]4CC[C@@H]5C[C@@H](O[C@@H]6O[C@H](CO)[C@@H](O)[C@H](O[C@@H]7O[C@H](CO)[C@@H](O)[C@H](O)[C@H]7O)[C@H]6O[C@@H]6O[C@H](CO)[C@@H](O)[C@H](O)[C@H]6O)CC[C@]5(C)[C@H]4CC[C@]3(C)[C@H]1[C@@H]2C
3 | 25 (≈ 27.7 µM) | 6.25 (≈ 6.92 µM) | 6.25 (≈ 6.92 µM) | 3.13 (≈ 3.47 µM) | 50 (≈ 55.4 µM) | 12.5 (≈ 13.8 µM) | C[C@H]1CC[C@@]2(OC1)O[C@H]1C[C@H]3[C@@H]4CC[C@@H]5C[C@@H](O[C@@H]6O[C@H](CO)[C@H](O)[C@H](O[C@@H]7O[C@H](CO)[C@@H](O)[C@H](O)[C@H]7O)[C@H]6O[C@@H]6O[C@H](CO)[C@@H](O)[C@H](O)[C@H]6O)CC[C@]5(C)[C@H]4CC[C@]3(C)[C@H]1[C@@H]2C
4 | 12.5 (≈ 13.9 µM) | > 100 | 3.13 (≈ 3.47 µM) | 6.13 (≈ 6.8 µM) | > 100 | 12.5 (≈ 13.9 µM) | C=C1CC[C@@]2(OC1)O[C@H]1C[C@H]3[C@@H]4CC[C@@H]5C[C@@H](O[C@@H]6O[C@H](CO)[C@@H](O)[C@H](O[C@@H]7O[C@H](CO)[C@@H](O)[C@H](O)[C@H]7O)[C@H]6O[C@@H]6O[C@H](CO)[C@@H](O)[C@H](O)[C@H]6O)CC[C@]5(C)[C@H]4CC[C@]3(C)[C@H]1[C@@H]2C
5 | 12.5 (≈ 14.4 µM) | > 100 | 3.13 (≈ 3.59 µM) | 3.13 (≈ 3.59 µM) | > 100 | 12.5 (≈ 14.4 µM) | C=C1CC[C@@]2(OC1)O[C@H]1C[C@H]3[C@@H]4CC[C@@H]5C[C@@H](O[C@@H]6O[C@H](CO)[C@H](O)[C@H](O[C@@H]7OC[C@@H](O)[C@H](O)[C@H]7O)[C@H]6O[C@@H]6O[C@H](CO)[C@@H](O)[C@H](O)[C@H]6O)CC[C@]5(C)[C@H]4CC[C@]3(C)[C@H]1[C@@H]2C
6 | > 100 | > 100 | > 100 | > 100 | > 100 | > 100 | C=C1CC[C@@]2(OC1)O[C@H]1C[C@H]3[C@@H]4CC[C@@H]5C[C@@H](O[C@@H]6O[C@H](CO)[C@@H](O)[C@H](O[C@@H]7OC[C@@H](O)[C@H](O)[C@H]7O)[C@H]6O[C@@H]6O[C@H](CO)[C@@H](O)[C@H](O)[C@H]6O)CC[C@]5(C)[C@H]4CC(=O)[C@]3(C)[C@H]1[C@@H]2C
7 | > 100 | > 100 | > 100 | > 100 | > 100 | > 100 | C=C1CC[C@@]2(OC1)O[C@H]1C[C@H]3[C@@H]4CC[C@@H]5C[C@@H](O[C@@H]6O[C@H](CO)[C@H](O)[C@H](O)[C@H]6O[C@@H]6O[C@H](CO)[C@@H](O)[C@H](O)[C@H]6O)[C@@H](O)C[C@]5(C)[C@H]4CC[C@]3(C)[C@H]1[C@@H]2C
8 | 100 (≈ 113 µM) | > 100 | 100 (≈ 113 µM) | > 100 | > 100 | 100 (≈ 113 µM) | C=C1CC[C@@]2(OC1)O[C@H]1C[C@H]3[C@@H]4CC[C@@H]5C[C@@H](O[C@@H]6O[C@H](CO)[C@H](O)[C@H](O[C@@H]7OC[C@@H](O)[C@H](O)[C@H]7O)[C@H]6O[C@@H]6O[C@H](CO)[C@@H](O)[C@H](O)[C@H]6O)[C@@H](O)C[C@]5(C)[C@H]4CC[C@]3(C)[C@H]1[C@@H]2C
9 | 6.25 (≈ 7.18 µM) | 6.25 (≈ 7.18 µM) | 3.13 (≈ 3.59 µM) | 3.13 (≈ 3.59 µM) | 12.5 (≈ 14.4 µM) | 3.13 (≈ 3.59 µM) | C=C1CC[C@@]2(OC1)O[C@H]1C[C@H]3[C@@H]4CC[C@@H]5C[C@@H](O[C@@H]6O[C@H](CO)[C@@H](O)[C@H](O[C@@H]7OC[C@@H](O)[C@H](O)[C@H]7O)[C@H]6O[C@@H]6O[C@H](CO)[C@@H](O)[C@H](O)[C@H]6O)CC[C@]5(C)[C@H]4CC[C@]3(C)[C@H]1[C@@H]2C
10 | 12.5 (≈ 16.9 µM) | > 100 | 3.13 (≈ 4.22 µM) | 6.25 (≈ 8.44 µM) | > 100 | 12.5 (≈ 16.9 µM) | C[C@H]1CC[C@@]2(OC1)O[C@H]1C[C@H]3[C@@H]4CC[C@@H]5C[C@@H](O[C@@H]6O[C@H](CO)[C@@H](O)[C@H](O)[C@H]6O[C@@H]6O[C@H](CO)[C@@H](O)[C@H](O)[C@H]6O)CC[C@]5(C)[C@H]4CC[C@]3(C)[C@H]1[C@@H]2C
11 | > 100 | > 100 | 100 (≈ 132 µM) | > 100 | > 100 | > 100 | C[C@H]1CC[C@@]2(OC1)O[C@H]1C[C@H]3[C@@H]4CC[C@@H]5C[C@@H](O[C@@H]6O[C@H](CO)[C@H](O)[C@H](O)[C@H]6O[C@@H]6O[C@H](CO)[C@@H](O)[C@H](O)[C@H]6O)[C@@H](O)C[C@]5(C)[C@H]4CC[C@]3(C)[C@H]1[C@@H]2C
12 | 50 | 6.25 | 3.13 | 3.13 | > 100 | 6.25 | CC1CC[C@@]2(OC1)O[C@H]1C[C@H]3[C@@H]4CC[C@@H]5C[C@@H](O[C@@H]6O[C@H](CO)[C@@H](O)[C@H](O[C@@H]7OC[C@@H](O)[C@H](O)[C@H]7O)[C@H]6O[C@@H]6O[C@H](CO)[C@@H](O)[C@H](O)[C@H]6O)CC[C@]5(C)[C@H]4CC[C@]3(C)[C@H]1[C@@H]2C (mixture of isomers)
13 | > 100 | > 100 | > 100 | 100 | > 100 | 100 | CC1CC[C@@]2(OC1)O[C@H]1C[C@H]3[C@@H]4CC[C@@H]5C[C@@H](O[C@@H]6O[C@H](CO)[C@@H](O)[C@H](O[C@@H]7OC[C@@H](O)[C@H](O)[C@H]7O)[C@H]6O[C@@H]6O[C@H](CO)[C@@H](O)[C@H](O)[C@H]6O)CC[C@]5(C)[C@H]4CC(=O)[C@]3(C)[C@H]1[C@@H]2C (mixture of isomers)
14 | > 100 | 50 | 12.5 | 3.13 | > 100 | 25 | CC1CC[C@@]2(OC1)O[C@H]1C[C@H]3[C@@H]4CC[C@@H]5C[C@@H](O[C@@H]6O[C@H](CO)[C@H](O)[C@H](O[C@@H]7OC[C@@H](O)[C@H](O)[C@H]7O)[C@H]6O[C@@H]6O[C@H](CO)[C@@H](O)[C@H](O)[C@H]6O)CC[C@]5(C)[C@H]4CC[C@]3(C)[C@H]1[C@@H]2C (mixture of isomers)
